The values below come from publication PMC13286052 (Antimicrobial Agents and Chemotherapy, 2026).

What is called EC50 is the concentration giving half of the maximal effect. Read a low EC50 as a more potent agent. Broadly, the bioavailability is dose-corrected exposure relative to a reference, in per cent. Lower therefore signals little systemic uptake. The AUC(0-t) is exposure summed from dosing to a finite time, without extrapolation to infinity. As a reminder, the Cmax is the maximum level reached in the sampled fluid or tissue. Usually MRT last stands for a mean duration of stay, worked out from the concentration-time curve. The Tmax is the time from dosing to the highest level. Usually clearance stands for the volume of plasma or blood freed of the substance per unit of time. Read a high clearance as a high capacity for elimination. In general, half-life refers to the time needed for the level to fall by half in the phase considered. A high value points to slow decline.

For series [1], the system named is VACV. In kind it is cell-based, vaccinia virus. The following applies: 48 h.
The test system of series [2] is VACV. The following applies: cited from earlier work.
Series [3] deals with poxvirus resolvases. As to conditions: cited from earlier work.
In series [4] the test system is MPXV resolvase (Mpr). In kind it is biochemical, monkeypox virus. As to conditions: 50 µM.
Series [5] has as its system vaccinia virus (VACV). The series is described as follows: microbe, parasite or virus in culture. In kind it is cell-based. As to conditions: for EC50: Orthopoxvirus vaccinia.
Series [6] relates to VACV. It counts as cell-based, vaccinia virus.
Series [7] has as its system VACV E3. In kind it is cell-based, vaccinia virus. The following applies: 10 µM.
Series [8] has as its system VACV. It counts as cell-based, vaccinia virus. The following applies: 10 µM.
Series [9] has as its system HCMV. As to conditions: cited from earlier work.
The nature of series [10]: in vitro. As to conditions: human.
Series [11] has as its system HFFs.
Series [12] deals with VACV DNA replication. In kind it is cell-based, vaccinia virus. The following applies: 10 µM.
The conditions of series [13]: microsomes; cited from earlier work.
Series [14] has as its system VACV gene expression. It counts as cell-based. As to conditions: 10 µM.
Series [15] in a line: in vivo. As to conditions: male, CD-1, mouse.
Series [16] concerns pUL89C. The following applies: cited from earlier work.
For series [17] the following is noted: male, CD-1, mouse, in vivo.

“Also recorded” adds a separate entry of the source. Bounds are passed on as bounds.

Regarding `Nc1ccn([C@@H]2O[C@H](CO)[C@@H](O)[C@@H]2O)c(=O)n1` [AraC, Cytarabine, reference compound], the “late viral gene expression in rhesus colon enteroids” value in series [1] is listed as “markedly reduced”.

As for `Cc1cc(C2CCCCC2)n(O)c(=O)c1` [Ciclopirox], the “inhibition of VACV replication” value in series [2] is “efficient inhibitors of VACV replication”.

As to `O=c1c(-c2ccccc2)c(O)c2cc(-c3cccc(-c4ccccc4)c3)cnc2n1O` [Compound 1, reference compound], the “inhibition of poxvirus resolvases” value in series [3] was “potently inhibits”. Besides, in [4], the Mpr inhibition entry was “nearly complete inhibition”.

As to `O=C(NNc1nc2cc(F)ccc2n2cccc12)c1cnccn1` [SC144], the “inhibition of VACV replication” value in series [2] is reported as “efficient inhibitors of VACV replication”.

In turn, `O=C(NN1C(=O)[C@@H]2[C@@H]3C=C[C@@H]([C@H]4C[C@@H]34)[C@@H]2C1=O)c1ccc(C(F)(F)F)cc1` [Tecovirimat, reference compound] showed an EC50 in series [5] of 25 nM.

Turning to `O=C(NCCc1ccc(F)cc1F)c1cn(Cc2ccc(F)cc2)cc(O)c1=O` [ZW-2038], the “viral replication (luciferase activity) in human jejunum enteroids” value in series [6] is “significantly suppressed”. Further, the E3 levels result in series [7] is given as “did not reduce”. The “VACV titers in ex vivo mouse lung tissue” value in series [8] is given as “consistently reduced”. Further, the “inhibition of HCMV” value in series [9] is “potently inhibited”. This compound also returned a CC50 in [10] greater than 500000 nM. The “cell viability compared to vehicle” value in series [11] was “no significant difference”. Also, the “viral DNA accumulation” value in series [12] is on record as “marked reduction”. For the same compound, in [13], the microsomal stability entry is on record as “good”. Moreover, in series [14], the “luciferase activity from the early promoter (vEGluc)” value is on record as “did not affect”, the “reporter activity from intermediate promoter (vIGluc)” value is recorded as “significantly diminished” and the “reporter activity from late promoter (vLGluc)” value is given as “significantly diminished”. In addition, the bioavailability in series [15] (Bioavailability (F, %)) worked out at 4%. Also, in series [15] (iv, 2 mg/kg), the AUC(0-t) is 238 ± 54 ng·h/mL, the concentration peaked (Cmax) at 528 ng/mL, the MRT last came to 0.9 ± 0.4 h and the Tmax stood at 0.08 h. In series [15] (iv, 2 mg/kg), this compound showed a clearance of 150 mL/min/kg and a half-life of 5 ± 2 h. In addition, in [15] (po, 20 mg/kg), the AUC(0-t) turned out to be 98 ± 15 ng·h/mL, the concentration peaked (Cmax) at 38 ng/mL, the MRT last amounted to 11 ± 2 h and the Tmax came out at 0.2 ± 0.2 h. Further, the half-life in series [15] (po, 20 mg/kg) is 104 ± 159 h. Further, in series [1], the “late viral gene expression in rhesus colon enteroids” value is given as “markedly reduced”. Also, in series [4], the Mpr inhibition result is “no Mpr inhibition; also recorded: did not inhibit”. Also, the “reduction of Gaussia luciferase activity” value in [5] (10 µM) is “more than 99%”. Moreover, a half-maximal response in series [5] (EC50) required 876 nM. For the same compound, the “inhibition of pUL89C” value in [16] is recorded as “did not inhibit”. In [17], the “Bioavailability (F, %)” value is given as 4.1% and the “oral Cmax lower than IV Cmax” value was determined as 14 fold. In [17] (po, 20 mg/kg), this compound registered a CL of 67 ± 50 mL/min/kg and a V of 117 ± 46 L/kg.
